From US11175296B2, “Methods of diagnosing and treating cancer comprising ME1” (Washington University, priority 2016, dated 2021)
Where a SMILES comes first, the peptide text is derived from it. The star is where a group is joined. Cbz = O=C(OCc1ccccc1)*; CH2F = FC*

Columns and labels:
[1] = tested on: SYO-1 and FUJI cell lines; test: Treatment with G6PD inhibitor DHEA and DHEA analogs, cell death; type: cell-based; conditions: over a course of 48 hours
Method: (§1) For FACS analysis, cell lines were plated at 200,000 cells per well, and incubated in various culture conditions. Media was collected in a FACS tube and samples were washed with PBS. The PBS was transferred into the FACS tube, and 0.5 mL 0.05% Trypsin/EDTA was added to each well. Samples were incubated for 5 minutes at 37° C., and diluted with 0.5 mL complete media before being transferred to the FACS tube. Wells were washed once with PBS, transferred to the FACS tube, and centrifuged at 800 g for 5 minutes at room temperature. The supernatant was aspirated off, and pellets were resuspended in 200 μL PBS (unstained control samples used for gating) or 200 μL of 1 μg/mL propidium iodide dissolved in PBS. Samples were run on a FAScan instrument and fluorescence analyzed on the Blue FL2 channel. Data was further analyzed using FloJo software.
(§2) For the evaluation of glucose deprivation alone and under additional conditions, cell lines were plated in a 6-well format at 200,000 cells per well on day 1. SYO was cultured and plated in Dulbecco's Modified Eagle Medium (DMEM) with 10% FBS and penicillin/streptomycin (include additional glucose concentration), which FUJI was cultured in RPMI medium with 10% FBS and penicillin/streptomycin. […] Samples were then ran and fluorescence analyzed via Blue FL2 channel on a FAScan instrument. […]

SYO-1 xenograft tumor = test: SYO-1 xenograft in nude athymic mice, tumor size; type: in vivo; conditions: 1 mg/day for 12 days
Method: Sixty nude athymic mice (Nu/J homozygous Cat#002019, The Jackson Lab) were xenografted with 1×10^6 SYO-1 cells that had been resuspended in 1×PBS 30% Matrigel (Corning, Inc., Cat# CB-40234). Mice were anesthetized with 1-2% isofluorane and injected at the left flank. The mice were observed until each tumor size was 100 mm3 by caliper measurement, at which point each individual mouse began daily injections of DHEA 1 mg/30 uL ( ), SWV-49s 3.75 mM, SWV-273.75 mM, SV-119 3.75 mM, SWV-27/SV-119 3.75 mM, or control vehicle Cremiphor. All agents were suspended in Cremiphor. Treatment or placebo injections continued for a total of 12 days. Daily caliper and weight measurements for a total of 30 days were undertaken for each cohort. Mice were sacrificed appropriately by “ ” guidelines and after the conclusion of the in vivo experiment.

[2] = tested on: SYO-1 and FUJI synovial sarcoma (SS) cell lines; test: Pretreatment before glucose deprivation, protection from cell death (PI FACS); type: cell-based
Method: During the routine cell culture splitting procedure, cell lines were plated in 6 well plates at 200,000 cells in 2 mL media. Samples were incubated at 37° C. for duration of experiment. Samples were washed with PBS and detached with 0.05% Trypsin/EDTA. Aliquots were diluted 1:2 with Trypan Blue (Sigma) and a viable cell count was obtained using a hemacytometer. For glucose and glutamine deprivation experiments, 200,000 cells were plated in standard media and incubated overnight. Samples were washed 3 times with 1×DPBS (Gibco), and the media was changed to DMEM (control samples) or glucose/glutamine free DMEM (experimental samples). Cell counts were taken as previously described at 2, 4, 6, and 8 hours after the media was changed, and normalized to cell counts taken from growth samples counted at the time the media was changed.
as §1
Cell viability was determined in tissue culture experiments by the trypan blue dye exclusion test. For the evaluation of glucose deprivation, cell lines were plated in a 6-well format at 200,000 cells per well on day 1. SYO was cultured and plated in Dulbecco's Modified Eagle Medium (DMEM) with 10% FBS and penicillin/streptomycin (include additional glucose concentration), which FUJI was cultured in RPMI medium with 10% FBS and penicillin/streptomycin. The following day, glucose-containing media was removed, and each well was washed with 1-2 mL of phosphate buffered saline (PBS) three times to ensure elimination of residual glucose. Glucose-free media was then replaced in each well for the duration of the experiment. At the end point, the glucose-free media was removed and each well washed with 1 mL of PBS. One-half milliliter of trypsin 0.05% was then applied to each well, later aggressively resuspended in 0.5 mL of media for a total cell volume of 1 mL. Twenty microliters of each well was then counted via hemocytometer, excluding those non-viable cells that were positive for trypan blue uptake and/or fragmented.
For the evaluation of glucose deprivation alone and under additional conditions, cell lines were plated in a 6-well format at 200,000 cells per well on day 1. SYO was cultured and plated in Dulbecco's Modified Eagle Medium (DMEM) with 10% FBS and penicillin/streptomycin (include additional glucose concentration), which FUJI was cultured in RPMI medium with 10% FBS and penicillin/streptomycin. The following day, glucose-containing media was removed, and each well was washed with 1-2 mL of phosphate buffered saline (PBS) three times to ensure elimination of residual glucose. Glucose-free media was then replaced in each well for the duration of the experiment. […]

[3] = tested on: SYO-1 and FUJI cell lines; test: Erastin / sigma-2 erastin treatment, cell death; type: cell-based; conditions: in as little as 8 hours, compared to control lines SKLMS-1 and MG63
Method: as §1, §2

[4] = Phase I open-label study of olaratumab and doxorubicin in patients with advanced soft tissue sarcoma (PK, DDI, safety)
Method: Patients with metastatic or locally advanced STS not amenable to treatment with surgery or curative radiotherapy, aged years with an ECOG PS of 0-2 and documented LVE fraction ≥50% were included. The primary objective was to assess the effect of Olara on the PK of Dox. Secondary objectives were to further characterize the PK and safety profiles of Olara alone and in combination with Dox. Drug-drug interaction (DDI) was assessed in 21-day cycles, where patients received each drug alone (Cycle 1) then in combination (Cycle 2). In Cycles 3-8, patients with clinical benefit could continue treatment with Olara+Dox. 15-mg/kg Olara was given IV over ˜60 min; 75-mg/m^2 Dox was given IV over ˜15 min.

[5] = pretreatment one hour prior to glucose-free media change

C[C@]12CC[C@H](O)CC1=CC[C@@H]1[C@@H]2CC[C@]2(C)C(=O)CC[C@@H]12 [DHEA, dehydroepiandrosterone]
cell death [1]: varying but significant cell death
tumor size (SYO-1 xenograft tumor): dramatic decrease in tumor size
tolerability of dose and regimen (SYO-1 xenograft tumor; murine model): well-tolerated

CC(=O)N[C@@H](CS)C(=O)O [NAC]
protection from cell death under glucose deprivation ([2]; 10 mM, pretreated one hour prior to glucose deprivation, 2 and 6 hours): protection from cell death was noted

CC(NC(=O)C(NC(=O)OCc1ccccc1)C(C)C)C(=O)NC(CC(=O)O)C(=O)CF (stereo not drawn) [ZVAD] (Cbz-Val-Ala-Asp-CH2F; configuration not given here)
protection from cell death under glucose deprivation [2, 5]: did not result in protection from cell death

Cc1c(O)c(=O)ccn1C [deferiprone]
protection from cell death under glucose deprivation ([2]; pretreated one hour prior to glucose deprivation, acute time course of 2-6 hours): significant protection from cell death

CCOc1ccccc1-n1c(C(C)N2CCN(C(=O)COc3ccc(Cl)cc3)CC2)nc2ccccc2c1=O (stereo not shown) [erastin]
cell death [3]: approximately 40%

CCOC(=O)c1ccc(NC2CCCCC2)c(N)c1 [ferrostatin]
protection from cell death under glucose deprivation [2, 5]: significant protection from glucose-deprivation mediated cell death

CN1C(=O)C(Cc2c[nH]c3ccccc23)NC1=S (stereo not shown) [necrostatin]
protection from cell death under glucose deprivation [2, 5]: did not result in protection from cell death

Olaratumab
effect on systemic exposure to Dox ([4]; IV infusion, both agents given in combination): did not have a clinically relevant effect
CL ([4]; human, in vivo): 0.0218 L/h
mean CL ([4]; human, in vivo): 0.0259 L/h
mean Cmax ([4]; human, in vivo): 393 µg/mL
median tmax post start of infusion ([4]; human, in vivo): ~2.8 h
time of Cmax post start of infusion ([4]; human, in vivo): ~2 h
mean Cmax ([4]; human, in vivo, iv, 15 mg/kg): 293 µg/mL
